The values below are quoted from earlier work in US4535248A, “Method for detecting aflatoxin in almonds” (priority 1984, dated 1985).

The subject of the series is rats. Particulars: for estimated effective dose, hepatocarcinogens (for comparison): similar estimates for other hepatocarcinogens.

As for `CN(C)N=O` [dimethylnitrosamine], the “estimated effective dose, hepatocarcinogens (for comparison)” value is given as 750 mg/day.

Regarding `COc1cc2c(c3oc(=O)c4c(c13)CCC4=O)[C@@H]1C=CO[C@@H]1O2` [B1], the “effective dose for the induction of liver tumors” value (rat, in vivo) is listed as “approximately 10 mg per day”.

For the compound `CN(C)c1ccc(N=Nc2ccccc2)cc1` [butteryellow], the “estimated effective dose, hepatocarcinogens (for comparison)” value was 9,000 mg/day.
